Data: patent US20110082130A1 (LIGAND PHARMACEUTICALS, INC., priority 2006, published 2011)

Target: T1, chimeric human H3 receptor (Homo sapiens, UniProt Q9Y5N1)
T1 construct: made in house; host or cells: Sf9 insect cells (baculovirus); P2 membrane preparation
Assay: Chimeric human H3 receptor GTP binding assay (agonist-stimulated GTP-gamma35S binding, Example 7)
Type: biochemical
Description: This Example illustrates a representative assay for evaluating agonist-stimulated GTP-gamma^35S binding (“GTP binding”) activity. […] This agonist-stimulated GTP binding activity can also be used to detect partial agonism mediated by antagonist compounds. A compound analyzed in this assay is referred to herein as a “test compound.”
Four independent baculoviral stocks (one directing the expression of the chimeric human H3 receptor and three directing the expression of each of the three subunits of a heterotrimeric G-protein) are used to infect a culture of Sf9 cells as described above. P2 membranes are prepared as described above, and agonist-stimulated GTP binding on the P2 membranes is assessed using histamine (Sigma Chemical Co., St. Louis, Mo.) as agonist in order to ascertain that the receptor/G-protein-alpha-beta-gamma combination(s) yield a functional response as measured by GTP binding. P2 membranes are resuspended by Dounce homogenization (tight pestle) in GTP binding assay buffer (50 mM Tris pH 7.4, 120 mM NaCl, 5 mM MgCl2, 2 mM EGTA, 1 mg/ml BSA, 0.2 mg/ml bacitracin, 0.02 mg/ml aprotinin, 0.01 mg/ml saponin, 10 μM GDP) and added to assay tubes at a concentration of 35 μg protein/reaction tube. After adding increasing doses of histamine at concentrations ranging from 10^−12 M to 10^−5 M, reactions are initiated by the addition of […] GTP-gamma^35S (PERKIN ELMER; Boston, Mass.) with a final assay volume of 0.20 ml. In competition experiments, non-radiolabeled test compounds are added to separate reactions at concentrations ranging from 10^−10 M to 10^−6 M along with 1 μM histamine to yield a final volume of 0.20 ml.
Neutral antagonists are antagonists that are substantially free of inherent agonist activity, and include those test compounds that reduce the histamine-stimulated GTP binding activity towards, but not below, baseline levels. In contrast, in the absence of added histamine, inverse agonists reduce the GTP binding activity of the receptor-containing membranes below baseline.
After a 60-min incubation at room temperature, reactions are terminated by vacuum filtration over WHATMAN GF/C filters (pre-soaked in wash buffer, 0.1% BSA) followed by washing with ice-cold wash buffer (50 mM Tris pH 7.4, 120 mM NaCl). The amount of receptor-bound (and thereby membrane-bound) GTP-gamma^35S is determined by measuring the filter-bound radioactivity, preferably by liquid scintillation spectrometry of the washed filters. Non-specific binding is determined in parallel assays including 10 μM unlabeled GTP-gammaS and typically represents less than 5 percent of total binding. Data is expressed as percent above basal (baseline). The results of GTP binding experiments are analyzed using SIGMAPLOT software (SPSS Inc., Chicago, Ill.). IC50 values are calculated by non-linear regression analysis of dose-response curves using Kaleidograph (Synergy Software, Reading, Pa.).
Alternatively the data is analyzed as follows. First, the average bound radioactivity from negative control wells (no agonist) is subtracted from the bound radioactivity detected for each of the other experimental wells. Second, average bound radioactivity is calculated for the positive control wells (agonist wells). Then, percent inhibition for each compound tested is calculated using the equation:
Calculated IC50 values are converted to K1 values by the Cheng-Prusoff correction (Cheng and Prusoff (1973) Biochem. Pharmacol. 22(23):3099-3108). Accordingly, the following equation: Ki=IC50/(1+[L]/EC50) is used, where [L] is the histamine concentration in the GTP binding assay, and EC50 is the concentration of histamine producing a 50% response, as determined by a dose-response analysis using concentrations of histamine ranging from 10^−10 M to 10^−6M. […]

[1] = Table II, "*" = Ki in assay of Example 7 less than 1 micromolar
[2] = Table I, P2 membranes of Sf9 cells, 1 μM histamine as agonist, Ki from IC50 by Cheng-Prusoff

T1 sequence (Q9Y5N1 with tags, fused parts or gaps): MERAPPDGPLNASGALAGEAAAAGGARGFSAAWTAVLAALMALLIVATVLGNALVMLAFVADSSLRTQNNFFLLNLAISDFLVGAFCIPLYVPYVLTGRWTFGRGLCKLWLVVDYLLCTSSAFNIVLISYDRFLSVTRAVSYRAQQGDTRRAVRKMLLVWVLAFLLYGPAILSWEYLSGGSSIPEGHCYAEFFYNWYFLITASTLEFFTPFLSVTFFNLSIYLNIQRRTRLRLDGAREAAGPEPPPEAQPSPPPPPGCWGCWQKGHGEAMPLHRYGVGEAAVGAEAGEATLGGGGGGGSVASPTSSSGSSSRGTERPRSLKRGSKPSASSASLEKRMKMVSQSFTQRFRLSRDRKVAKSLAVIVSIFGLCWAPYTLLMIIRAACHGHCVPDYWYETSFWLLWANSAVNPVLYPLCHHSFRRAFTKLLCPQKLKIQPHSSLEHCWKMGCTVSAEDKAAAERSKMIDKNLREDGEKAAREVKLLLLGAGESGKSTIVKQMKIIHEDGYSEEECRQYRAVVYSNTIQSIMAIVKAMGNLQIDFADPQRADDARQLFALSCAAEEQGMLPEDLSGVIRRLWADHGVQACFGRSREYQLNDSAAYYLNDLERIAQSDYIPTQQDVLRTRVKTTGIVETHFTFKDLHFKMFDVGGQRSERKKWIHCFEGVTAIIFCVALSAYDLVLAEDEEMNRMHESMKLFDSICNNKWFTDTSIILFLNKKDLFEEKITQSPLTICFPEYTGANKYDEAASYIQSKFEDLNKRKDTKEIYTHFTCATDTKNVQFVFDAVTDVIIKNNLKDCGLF

SMILES | Ki [1] | Ki [2]
CC1CCC[C@H]2CN(C(=O)CN3CCc4cc(Br)ccc4C3)CCN12 (stereo in doubt) [Compound 146, 2-[(6-bromo-3,4-dihydroisoquinolin-2(1H)-yl)acetyl]-6-methyloctahydro-2H-pyrido[1,2-a]pyrazine] | < 1000 nM | –
CC1CCC[C@H]2CN(C(=O)CN3CCc4nc(Cl)sc4C3)CCN12 (stereo in doubt) [Compound 147, 2-[(2-chloro-6,7-dihydro[1,3]thiazolo [5,4-c]pyridin-5(4H)-yl)acetyl]-6-methyloctahydro-2H-pyrido[1,2-a]pyrazine] | < 1000 nM | –
CC1CCC[C@H]2CN(C(=O)CN3CCc4cc(-c5cncnc5)ccc4C3)CCN12 (stereo in doubt) [Compound 149, 6-methyl-2-[(6-pyrimidin-5-yl-3,4-dihydroisoquinolin-2(1H)-yl)acetyl]octahydro-2H-pyrido[1,2-a]pyrazine] | < 1000 nM | –
CC1CCC[C@H]2CN(C(=O)CN3CCc4nc(-c5cncnc5)sc4C3)CCN12 (stereo in doubt) [Compound 150, 6-methyl-2-[(2-pyrimidin-5-yl-6,7-dihydro[1,3]thiazolo [5,4-c]pyridin-5(4H)-yl)acetyl]octahydro-2H-pyrido[1,2-a]pyrazine] | < 1000 nM | –
CC1CCC[C@H]2CN(C(=O)CN3CCc4cc(-n5cccn5)ccc4C3)CCN12 (stereo in doubt) [Compound 152, 6-methyl-2-{[6-(1H-pyrazol-1-yl)-3,4-dihydroisoquinolin-2(1H)-yl]acetyl}octahydro-2H-pyrido[1,2-a]pyrazine] | < 1000 nM | –
O=C(CN1CCc2ccccc2C1)N1CCN(C2CCCC2)CC1 [Compound 46, 2-[2-(4-cyclopentylpiperazin-1-yl)-2-oxoethyl]-1,2,3,4-tetrahydroisoquinoline] | – | < 1000 nM
COc1cc2c(cc1OC)CN(CC(=O)N1CCN(C3CCCC3)CC1)CC2 [Compound 47, 2-[2-(4-cyclopentylpiperazin-1-yl)-2-oxoethyl]-6,7-dimethoxy-1,2,3,4-tetrahydroisoquinoline] | – | < 1000 nM
COc1cc2c(cc1OC)CN(CC(=O)N1CCN(C3CCC3)CC1)CC2 [Compound 48, 2-[2-(4-cyclobutylpiperazin-1-yl)-2-oxoethyl]-6,7-dimethoxy-1,2,3,4-tetrahydroisoquinoline] | – | < 1000 nM
COc1cc2c(cc1OC)CN(CC(=O)N1CCN(C(C)C)CC1)CC2 [Compound 49, 2-[2-(4-isopropylpiperazin-1-yl)-2-oxoethyl]-6,7-dimethoxy-1,2,3,4-tetrahydroisoquinoline] | – | < 1000 nM
COc1cc2c(cc1OC)CN(CC(=O)N1CCN(C3CCCCC3)CC1)CC2 [Compound 50, 2-[2-(4-cyclohexylpiperazin-1-yl)-2-oxoethyl]-6,7-dimethoxy-1,2,3,4-tetrahydroisoquinoline] | – | < 1000 nM
CC(C)N1CCN(C(=O)CN2CCc3ccccc3C2c2ccccc2)CC1 (stereo not shown) [Compound 52, 2-[2-(4-isopropylpiperazin-1-yl)-2-oxoethyl]-1-phenyl-1,2,3,4-tetrahydroisoquinoline] | – | < 1000 nM

Now from value to compound:

Ki [1] | Ki [2] | SMILES
< 1000 nM | – | CC1CCC[C@H]2CN(C(=O)CN3CCc4cc(-n5ccc(C(F)(F)F)n5)ccc4C3)CCN12 (stereo in doubt) [Compound 158, 6-methyl-2-({6-[3-(trifluoromethyl)-1H-pyrazol-1-yl]-3,4-dihydroisoquinolin-2(1H)-yl}acetyl)octahydro-2H-pyrido[1,2-a]pyrazine]
< 1000 nM | – | CCC1CCC[C@H]2CN(C(=O)CN3CCc4cc(-c5cncnc5)ccc4C3)CCN12 (stereo in doubt) [Compound 160, 6-ethyl-2-[(6-pyrimidin-5-yl-3,4-dihydroisoquinolin-2(1H)-yl)acetyl]octahydro-2H-pyrido[1,2-a]pyrazine]
< 1000 nM | – | CCC1CCC[C@H]2CN(C(=O)CN3CCc4cc(-n5ccc(C(F)(F)F)n5)ccc4C3)CCN12 (stereo in doubt) [Compound 161, 6-ethyl-2-({6-[3-(trifluoromethyl)-1H-pyrazol-1-yl]-3,4-dihydroisoquinolin-2(1H)-yl}acetyl)octahydro-2H-pyrido[1,2-a]pyrazine]
< 1000 nM | – | CCC1CCC[C@H]2CN(C(=O)CN3CCc4cc(Br)ccc4C3)CCN12 (stereo in doubt) [Compound 162, 2-[(6-bromo-3,4-dihydroisoquinolin-2(1H)-yl)acetyl]-6-ethyloctahydro-2H-pyrido[1,2-a]pyrazine]
< 1000 nM | – | CCC1CCC[C@H]2CN(C(=O)CN3CCc4cc(C(C)=O)ccc4C3)CCN12 (stereo in doubt) [Compound 163, 1-{2-[2-(6-ethyloctahydro-2H-pyrido[1,2-a]pyrazin-2-yl)-2-oxoethyl]-1,2,3,4-tetrahydroisoquinolin-6-yl}ethanone]
< 1000 nM | – | CCC1CCC[C@H]2CN(C(=O)CN3CCc4cc(-n5cccn5)ccc4C3)CCN12 (stereo in doubt) [Compound 167, 6-ethyl-2-{[6-(1H-pyrazol-1-yl)-3,4-dihydroisoquinolin-2(1H)-yl]acetyl}octahydro-2H-pyrido[1,2-a]pyrazine]
< 1000 nM | – | CC1CCC[C@H]2CN(C(=O)CN3CCc4nc(Cl)ccc4C3)CCN12 (stereo in doubt) [Compound 174, 2-chloro-6-[2-(6-methyloctahydro-2H-pyrido[1,2-a]pyrazin-2-yl)-2-oxoethyl]-5,6,7,8-tetrahydro-1,6-naphthyridine]
< 1000 nM | – | CC1CCC[C@H]2CN(C(=O)CN3CCc4nc(-c5cncnc5)ccc4C3)CCN12 (stereo in doubt) [Compound 177, 6-[2-(6-methyloctahydro-2H-pyrido[1,2-a]pyrazin-2-yl)-2-oxoethyl]-2-pyrimidin-5-yl-5,6,7,8-tetrahydro-1,6-naphthyridine]
< 1000 nM | – | COc1ccc(-c2ccc3c(n2)CCN(CC(=O)N2CCN4C(C)CCC[C@H]4C2)C3)cc1 (stereo in doubt) [Compound 178, 2-(4-methoxyphenyl)-6-[2-(6-methyloctahydro-2H-pyrido[1,2-a]pyrazin-2-yl)-2-oxoethyl]-5,6,7,8-tetrahydro-1,6-naphthyridine]
< 1000 nM | – | CC1CN(c2ccc3c(n2)CCN(CC(=O)N2CCN4C(C)CCC[C@H]4C2)C3)CC(C)O1 (stereo in doubt) [Compound 179, 2-(2,6-dimethylmorpholin-4-yl)-6-[2-(6-methyloctahydro-2H-pyrido[1,2-a]pyrazin-2-yl)-2-oxoethyl]-5,6,7,8-tetrahydro-1,6-naphthyridine]
< 1000 nM | – | CC1CCC[C@H]2CN(C(=O)CN3CCc4nc(N5CCC(F)(F)CC5)ccc4C3)CCN12 (stereo in doubt) [Compound 180, 2-(4,4-difluoropiperidin-1-yl)-6-[2-(6-methyloctahydro-2H-pyrido[1,2-a]pyrazin-2-yl)-2-oxoethyl]-5,6,7,8-tetrahydro-1,6-naphthyridine]
< 1000 nM | – | COCCN(C)c1ccc2c(n1)CCN(CC(=O)N1CCN3C(C)CCC[C@H]3C1)C2 (stereo in doubt) [Compound 181, N-(2-methoxyethyl)-N-methyl-6-[2-(6-methyloctahydro-2H-pyrido[1,2-a]pyrazin-2-yl)-2-oxoethyl]-5,6,7,8-tetrahydro-1,6-naphthyridin-2-amine]
< 1000 nM | – | C[C@H]1CCCN1c1ccc2c(n1)CCN(CC(=O)N1CCN(C3CCC3)CC1)C2 (stereo in doubt) [Compound 223, 6-[2-(4-cyclobutylpiperazin-1-yl)-2-oxoethyl]-2-(2-methylpyrrolidin-1-yl)-5,6,7,8-tetrahydro-1,6-naphthyridine]
< 1000 nM | – | C[C@@H](O)c1ccc2c(c1)CCN(CC(=O)N1CCN(C3CCC3)CC1)C2 (stereo in doubt) [Compound 253, 1-{2-[2-(4-cyclobutylpiperazin-1-yl)-2-oxoethyl]-1,2,3,4-tetrahydroisoquinolin-6-yl}ethanol]
